Measurements reported in patent US8357717B2, “Spiro group-containing amide compounds having bradykinin 1 receptor (B1R) activity” (Gruenenthal GmbH, priority 2009, dated 2013).

Columns and labels:
[1] = target: T1, human B1R receptor (hB1R) (Homo sapiens, UniProt P46663); experiment: FLIPR Ca2+ functional study on bradykinin receptor 1, hB1R cells (CHO K1); type: cell-based; details: CHO-K1, 10 μM test substance; CHO K1 cells with human B1R; agonist Lys-Des-Arg9-bradykinin at EC80; read-out: B1R antagonism, human [10 μM] % inhibition
T1 construct: expressed in transfected cells; host or cells: CHO K1 cells, stably transfected
T1 sequence (P46663 1-353): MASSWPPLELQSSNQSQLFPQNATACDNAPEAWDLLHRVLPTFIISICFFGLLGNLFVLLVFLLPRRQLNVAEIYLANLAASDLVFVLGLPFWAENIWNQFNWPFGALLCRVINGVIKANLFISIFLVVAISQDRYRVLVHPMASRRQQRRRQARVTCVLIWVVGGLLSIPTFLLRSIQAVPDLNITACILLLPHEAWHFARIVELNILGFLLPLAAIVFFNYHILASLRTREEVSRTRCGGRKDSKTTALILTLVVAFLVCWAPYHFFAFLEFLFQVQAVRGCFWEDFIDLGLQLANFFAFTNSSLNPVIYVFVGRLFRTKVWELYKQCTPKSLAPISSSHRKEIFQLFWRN
Method: (§1) The agonistic or antagonistic activity of substances can be quantified on the bradykinin receptor 1 (B1R) of the species human and rat using ectopically expressing cell lines (CHO K1 cells) and with the aid of a Ca^2+-sensitive dye (Fluo-4) using a fluorescent imaging plate reader (FLIPR). The indication in % activation is based on the Ca^2+ signal after addition of Lys-Des-Arg^9-bradykinin (0.5 nM) or Des-Arg^9-bradykinin (100 nM). Antagonists lead to suppression of the Ca^2+ influx after the addition of the agonist. % Inhibition compared with the maximum achievable inhibition is indicated.
(§2) The agonistic or antagonistic activity of substances can be determined on the bradykinin receptor 1 (B1R) of the species human and rat using the following assay. According to this assay, the Ca^2+ influx through the channel is quantified with the aid of a Ca^2+-sensitive dye (Fluo-4 type, Molecular Probes Europe BV, Leiden, Netherlands) using a Fluorescent Imaging Plate Reader (FLIPR, Molecular Devices, Sunnyvale, USA).
(§3) Chinese hamster ovary cells (CHO K1 cells) which have been stably transfected with the human B1R gene (hB1R cells) or with the B1R gene of the rat (rB1R cells) are used. For functional studies, the cells are plated out on black 96-well plates having a clear base (BD Biosciences, Heidelberg, Germany or Greiner, Frickenhausen, Germany) in a density of 20,000-35,000 cells/well. The cells are left overnight at 37° C. and with 5% CO2 in culture medium (hB1R cells: Nutrient Mixture Ham's F12, Gibco Invitrogen GmbH, Karlsruhe, Germany or DMEM, Sigma-Aldrich, Taufkirchen, Germany; rB1R cells: D-MEM/F12, Gibco Invitrogen GmbH, Karlsruhe, Germany), with 10 vol. % FBS (fetal bovine serum, Gibco Invitrogen GmbH, Karlsruhe, Germany or PAN Biotech GmbH, Aidenbach, Germany). On the following day, the cells are loaded for 60 minutes at 37° C. with 2.13 μM Fluo-4 (Molecular Probes Europe BV, Leiden, Netherlands) in HBSS buffer (Hank's buffered saline solution, Gibco Invitrogen GmbH, Karlsruhe, Germany) […] (Sigma-Aldrich, Taufkirchen, Germany) and 10 mM HEPES (Sigma-Aldrich, Taufkirchen, Germany). The plates are then washed twice with HBSS buffer, and HBSS buffer additionally containing 0.1% BSA (bovine serum albumin; Sigma-Aldrich, Taufkirchen, Germany), 5.6 mM glucose and 0.05% gelatin (Merck KGaA, Darmstadt, Germany) is added to the plates. After incubation for a further 20 minutes at room temperature, the plates are inserted into the FLIPR for Ca^2+ measurement. Alternatively, washing is carried out with buffer A (15 mM HEPES, 80 mM NaCl, 5 mM KCl, 1.2 mM CaCl2, 0.7 mM MgSO4, 2 g/l glucose, 2.5 mM probenecid) followed by loading with buffer A with added 2.5 μM Fluo-4 and 0.025% Pluronic F127 (Sigma-Aldrich, Taufkirchen, Germany). The cells are then washed twice with buffer A and incubated for 30 minutes at room temperature with buffer A additionally containing 0.05% BSA and 0.05% gelatin and are then inserted into the FLIPR for Ca^2+ measurement. The Ca^2+-dependent fluorescence is measured before and after the addition of substances (λex=488 nm, λem=540 nm). Quantification is carried out by measuring the highest fluorescence intensity (FC, fluorescence counts) over time.
(§4) The FLIPR protocol consists of two substance additions. Test substances (10 μM) are first pipetted onto the cells and the Ca^2+ influx is compared with the control (hB1R: Lys-Des-Arg^9-bradykinin >=50 nM; rB1R: Des-Arg^9-bradykinin 10 μM). This gives the activation in %, based on the Ca^2+ signal after addition of Lys-Des-Arg^9-bradykinin (>=50 nM) or Des-Arg^9-bradykinin (10 μM). After 10-20 minutes' incubation, Lys-Des-Arg^9-bradykinin (hB1R) or Des-Arg^9-bradykinin (rB1R) is applied in the concentration of the EC80, and the influx of Ca^2+ is likewise determined. Antagonists lead to suppression of the Ca^2+ influx. The % inhibition compared with the maximum achievable inhibition is calculated. […]

[2] = target: T2, B1R receptor of the rat (rB1R) (Rattus norvegicus, UniProt P97583); experiment: FLIPR Ca2+ functional study on bradykinin receptor 1, rB1R cells (CHO K1); type: cell-based; details: 10 μM test substance; CHO K1 cells with rat B1R; agonist Des-Arg9-bradykinin at EC80; read-out: B1R antagonism, rat [10 μM] % inhibition
T2 construct: expressed in transfected cells; host or cells: CHO K1 cells, stably transfected
T2 sequence (P97583 1-337): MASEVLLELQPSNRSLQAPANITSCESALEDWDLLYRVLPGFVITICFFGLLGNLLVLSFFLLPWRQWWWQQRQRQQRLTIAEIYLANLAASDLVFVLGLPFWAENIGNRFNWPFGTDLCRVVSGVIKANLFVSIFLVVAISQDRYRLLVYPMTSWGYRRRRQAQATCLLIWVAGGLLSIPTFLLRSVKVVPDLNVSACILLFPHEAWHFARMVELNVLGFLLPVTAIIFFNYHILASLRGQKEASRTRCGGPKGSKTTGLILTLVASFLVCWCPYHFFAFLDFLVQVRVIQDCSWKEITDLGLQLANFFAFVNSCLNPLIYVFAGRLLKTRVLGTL
Method: as §1, §2, §3, §4

**Q.** With `COc1cc(C)c(S(=O)(=O)N2CCCc3ccc(CC(=O)N4CCC5(CC4)CCN(C4CCC4)C5)cc32)c(C)c1` [Compound G-10, 1-(2-Cyclobutyl-2,8-diazaspiro[4.5]decan-8-yl)-2-(1-(4-methoxy-2,6-dimethylphenylsulfonyl)-1,2,3,4-tetrahydroquinolin-7-yl)ethanone] as the molecule, how does the inhibition at 10 µM [1] read?
**A.** 97%

**Q.** And the inhibition at 10 µM [2]?
**A.** 80%

**Q.** Which results are given for `COc1cc(C)c(S(=O)(=O)N2CCCc3ccc(CC(=O)N4CCC5(CCN(c6ccncc6)CC5)C4)cc32)c(C)c1` [Compound G-11, 2-(1-(4-Methoxy-2,6-dimethylphenylsulfonyl)-1,2,3,4-tetrahydroquinolin-7-yl)-1-(8-(pyridin-4-yl)-2,8-diazaspiro[4.5]decan-2-yl)ethanone]?
**A.** inhibition at 10 µM [1]: 99%; inhibition at 10 µM [2]: 99%

**Q.** With `COc1cc(C)c(S(=O)(=O)N2CCCc3ccc(CC(=O)N4CCC5(CCN(c6ccncc6)C5)C4)cc32)c(C)c1` (stereo not drawn) [Compound G-12, 2-(1-(4-Methoxy-2,6-dimethylphenylsulfonyl)-1,2,3,4-tetrahydroquinolin-7-yl)-1-(7-(pyridin-4-yl)-2,7-diazaspiro[4.4]nonan-2-yl)ethanone] as the molecule, how does the inhibition at 10 µM [1] read?
**A.** 100%

**Q.** What about the inhibition at 10 µM [2] of the same molecule?
**A.** 102%

**Q.** Which inhibition at 10 µM [1] does the source give for `O=C(c1ccccc1Cl)N1CCc2onc(C(=O)N3CCC4(CC3)CCN(c3ccncc3)CC4)c2C1` [Compound G-13, (5-(2-Chlorobenzoyl)-4,5,6,7-tetrahydroisoxazolo[4,5-c]pyridin-3-yl)(9-(pyridin-4-yl)-3,9-diazaspiro[5.5]undecan-3-yl)methanone] here?
**A.** 100%

**Q.** What about the inhibition at 10 µM [2] of the same molecule?
**A.** 94%

**Q.** Which inhibition at 10 µM [1] does the source give for `COc1cc(C)c(S(=O)(=O)N2CCc3sc(C(=O)N4CCC5(CC4)CCN(c4ccncc4)CC5)cc3C2)c(C)c1` [Compound G-14, (5-(4-Methoxy-2,6-dimethylphenylsulfonyl)-4,5,6,7-tetrahydrothieno[3,2-c]pyridin-2-yl)(9-(pyridin-4-yl)-3,9-diazaspiro[5.5]undecan-3-yl)methanone] here?
**A.** 97%

**Q.** What about the inhibition at 10 µM [2] of the same molecule?
**A.** 97%

**Q.** What does the source list for `O=C(c1cc2c(s1)CCN(C(=O)c1ccccc1Cl)C2)N1CCC2(CC1)CCN(c1ccncc1)CC2` [Compound G-15, (5-(2-Chlorobenzoyl)-4,5,6,7-tetrahydrothieno[3,2-c]pyridin-2-yl)(9-(pyridin-4-yl)-3,9-diazaspiro[5.5]undecan-3-yl)methanone]?
**A.** inhibition at 10 µM [1]: 66%; inhibition at 10 µM [2]: 81%

**Q.** With `O=C(Cc1ccc2c(c1)N(S(=O)(=O)c1ccccc1C(F)(F)F)CCC2)N1CCC2(CC1)CCN(c1ccncc1)CC2` [Compound G-16, 1-(9-(Pyridin-4-yl)-3,9-diazaspiro[5.5]undecan-3-yl)-2-(1-(2-(trifluoromethyl)phenylsulfonyl)-1,2,3,4-tetrahydroquinolin-7-yl)ethanone] as the molecule, how does the inhibition at 10 µM [1] read?
**A.** 98%

**Q.** And the inhibition at 10 µM [2]?
**A.** 100%

**Q.** Which inhibition at 10 µM [1] does the source give for `O=C(Cc1ccc2c(c1)N(S(=O)(=O)c1cccc3ccccc13)CCC2)N1CCC2(CC1)CCN(c1ccncc1)CC2` [Compound G-17, 2-(1-(Naphthalin-1-ylsulfonyl)-1,2,3,4-tetrahydroquinolin-7-yl)-1-(9-(pyridin-4-yl)-3,9-diazaspiro[5.5]undecan-3-yl)ethanone] here?
**A.** 97%

**Q.** What about the inhibition at 10 µM [2] of the same molecule?
**A.** 89%

**Q.** How did the inhibition at 10 µM [1] turn out when `Cc1cccc(Cl)c1S(=O)(=O)N1CCCc2ccc(CC(=O)N3CCC4(CC3)CCN(c3ccncc3)CC4)cc21` [Compound G-18, 2-(1-(2-Chloro-6-methylphenylsulfonyl)-1,2,3,4-tetrahydroquinolin-7-yl)-1-(9-(pyridin-4-yl)-3,9-diazaspiro[5.5]undecan-3-yl)ethanone] was run?
**A.** 97%

**Q.** And the inhibition at 10 µM [2]?
**A.** 98%

**Q.** Which results are given for `COc1cc(C)c(S(=O)(=O)N2CCOc3ccc(CC(=O)N4CCC5(CC4)CCN(c4ccncc4)CC5)cc32)c(C)c1` [Compound G-19, 2-(4-(4-Methoxy-2,6-dimethylphenylsulfonyl)-3,4-dihydro-2H-benzo[b][1,4]oxazin-6-yl)-1-(9-(pyridin-4-yl)-3,9-diazaspiro[5.5]undecan-3-yl)ethanone]?
**A.** inhibition at 10 µM [1]: 100%; inhibition at 10 µM [2]: 100%

**Q.** With `COc1cc(C)c(S(=O)(=O)N2CCc3ccc(CC(=O)N4CCC5(CC4)CCN(c4ccncc4)CC5)cc32)c(C)c1` [Compound G-20, 2-(1-(4-Methoxy-2,6-dimethylphenylsulfonyl)indolin-6-yl)-1-(9-(pyridin-4-yl)-3,9-diazaspiro[5.5]undecan-3-yl)ethanone] as the molecule, how does the inhibition at 10 µM [1] read?
**A.** 100%

**Q.** And the inhibition at 10 µM [2]?
**A.** 102%

**Q.** With `O=C(c1ccc2c(c1)N(C(=O)c1ccccc1Cl)CCC2)N1CCC2(CC1)CCN(c1ccncc1)CC2` [Compound G-21, (1-(2-Chlorobenzoyl)-1,2,3,4-tetrahydroquinolin-7-yl)(9-(pyridin-4-yl)-3,9-diazaspiro[5.5]undecan-3-yl)methanone] as the molecule, how does the inhibition at 10 µM [1] read?
**A.** 95%

**Q.** What about the inhibition at 10 µM [2] of the same molecule?
**A.** 101%

**Q.** Which inhibition at 10 µM [1] does the source give for `COc1cc(C)c(S(=O)(=O)N2CCCc3ccc(C(=O)N4CCC5(CC4)CCN(c4ccncc4)CC5)cc32)c(C)c1` [Compound G-24, (1-(4-Methoxy-2,6-dimethylphenylsulfonyl)-1,2,3,4-tetrahydroquinolin-7-yl)(9-(pyridin-4-yl)-3,9-diazaspiro[5.5]undecan-3-yl)methanone] here?
**A.** 99%

**Q.** And the inhibition at 10 µM [2]?
**A.** 100%

**Q.** `COc1cc(C)c(S(=O)(=O)N2CCCc3ccc(CC(=O)N4CCC5(CC4)CCN(c4ccncc4)CC5)cc32)c(C)c1` [Compound G-25, 2-(1-(4-Methoxy-2,6-dimethylphenylsulfonyl)-1,2,3,4-tetrahydroquinolin-7-yl)-1-(9-(pyridin-4-yl)-3,9-diazaspiro[5.5]undecan-3-yl)ethanone] was tested. Which inhibition at 10 µM [1] did it give?
**A.** 100%

**Q.** What about the inhibition at 10 µM [2] of the same molecule?
**A.** 98%

**Q.** What does the source list for `COc1cc(C)c(S(=O)(=O)N2CCc3onc(C(=O)N4CCC5(CC4)CCN(c4ccncc4)CC5)c3C2)c(C)c1` [Compound G-26, (5-(4-Methoxy-2,6-dimethylphenylsulfonyl)-4,5,6,7-tetrahydroisoxazolo[4,5-c]pyridin-3-yl)(9-(pyridin-4-yl)-3,9-diazaspiro[5.5]undecan-3-yl)methanone]?
**A.** inhibition at 10 µM [1]: 99%; inhibition at 10 µM [2]: 95%
